# Measured values: article PMC7337386 (bioRxiv, 2020)
# “Also recorded” adds a separate entry of the source.
# Columns and labels:
# [1] = test system: SARS-CoV-2 (USA_WA1/2020); assay: SARS-CoV-2 viral cytopathic effect assay; assay type: cell-based; details: for interaction with nitazoxanide: in combination with nitazoxanide; for interaction with nitazoxanide / interaction with remdesivir: CPE assay; for interaction with remdesivir / interaction with remdesivir at high concentrations: in combination with remdesivir; for maximum rescue of CPE, drug alone: single agent
# [2] = cited from earlier work; for time of peak concentration: after oral administration
# SARS-CoV-2 = details: single agent; cited from earlier work
# [3] = healthy adults; cited from earlier work
SMILES,interaction with nitazoxanide [1],interaction with remdesivir [1],interaction with remdesivir at high concentrations [1],"maximum rescue of CPE, drug alone [1]",time of peak concentration [2],also measured
CCN(CC)Cc1cc(Nc2ccnc3cc(Cl)ccc23)ccc1O [Amodiaquine],significant synergy; also recorded: notable synergism,strong antagonistic effect,synergize,40–60%,≤ 30 min,half-life [2]: ~ 3 hours; loss of potency in Calu-3 (TMPRSS2+) versus Vero E6 (SARS-CoV-2): > 10 fold
CCOC(=O)c1c(CSc2ccccc2)n(C)c2cc(Br)c(O)c(CN(C)C)c12 [Arbidol],,,synergize,,,concentrations showing synergism with remdesivir [1]: 3 to 10 µM
OC(c1cc(C(F)(F)F)nc2c(C(F)(F)F)cccc12)C1CCCCN1 (centres unmarked) [Mefloquine],,strong antagonistic effect,synergize,,,
CC(=O)Oc1ccccc1C(=O)Nc1ncc([N+](=O)[O-])s1 [Nitazoxanide],,,,40–60%,,toxicity (Vero E6 cells; 10 μM): ~ 20%; cytotoxicity (Vero E6 cells; concentration below 5 μM): not cytotoxic; tolerability [3]: well tolerated
CCC(CC)COC(=O)[C@H](C)N[P@](=O)(OC[C@H]1O[C@@](C#N)(c2ccc3c(N)ncnn23)[C@H](O)[C@@H]1O)Oc1ccccc1 [Remdesivir],significant synergy; also recorded: notable synergism,,,40–60%,,
CCNCc1cc(Nc2ccnc3cc(Cl)ccc23)ccc1O [monodesethyl-amodiaquine],,,,,120 min,peak concentration ([2]; after oral administration of amodiaquine): ~ 500 nM; half-life in blood plasma [2]: 220 to 432 h
